Earlier results, collected in patent publication US20170027865A1, “Dry Pharmaceutical Compositions for Topical Delivery of Oral Medications, Nasal Delivery and to Treat Ear Disorders” (CMPD LICENSING LLC, priority 2013, published 2017).

Key:
[1] = tested on: Clostridium perfringens; conditions: Clostridium perfringens; Gram: anaer
[2] = tested on: Acinetobacter baumannii; conditions: Gram: neg
[3] = tested on: Acinetobacter calcoaceticus; conditions: Gram: neg
[4] = tested on: Acinetobacter lwoffii; conditions: Gram: neg
[5] = tested on: Bartonella bacilliformis; conditions: Gram: neg
[6] = tested on: Bordetella pertussis; conditions: Gram: neg
[7] = tested on: Brucella species; conditions: Brucella species; Gram: neg
[8] = tested on: Campylobacter jejuni; conditions: Gram: neg
[9] = tested on: Citrobacter diversus; conditions: Gram: neg
[10] = tested on: Citrobacter freundii; conditions: Gram: neg
[11] = tested on: Enterobacter aerogenes; conditions: Gram: neg
[12] = tested on: Enterobacter cloacae; conditions: Gram: neg
[13] = tested on: Enterobacter sakazakii; conditions: Gram: neg
[14] = tested on: Escherichia coli; conditions: Gram: neg
[15] = tested on: Francisella tularensis; conditions: Francisella tularensis; Gram: neg
[16] = tested on: Haemophilus ducreyi; conditions: Gram: neg
[17] = tested on: Haemophilus influenzae; conditions: Gram: neg
[18] = tested on: Klebsiella (Calymmatobacterium) granulomatis; conditions: Gram: neg
[19] = tested on: Klebsiella oxytoca; conditions: Gram: neg
[20] = tested on: Klebsiella pneumoniae; conditions: Gram: neg
[21] = tested on: Legionella pneumophila; conditions: Legionella pneumophila; Gram: neg
[22] = tested on: Moraxella catarrhalis; conditions: Gram: neg
[23] = tested on: Morganella morganii; conditions: Gram: neg
[24] = tested on: Neisseria gonorrhoeae; conditions: Gram: neg
[25] = tested on: Neisseria meningitidis; conditions: Gram: neg
[26] = tested on: Proteus mirabilis; conditions: Gram: neg
[27] = tested on: Proteus vulgaris; conditions: Gram: neg
[28] = tested on: Providencia rettgeri; conditions: Gram: neg
[29] = tested on: Providencia stuartii; conditions: Gram: neg
[30] = tested on: Pseudomonas aeruginosa; conditions: Gram: neg
[31] = tested on: Pseudomonas fluorescens; conditions: Gram: neg
[32] = tested on: Rickettsiae; conditions: Rickettsiae; Gram: neg
[33] = tested on: Salmonella typhi; conditions: Gram: neg
[34] = tested on: Serratia marcescens; conditions: Gram: neg
[35] = tested on: Shigella boydii; conditions: Gram: neg
[36] = tested on: Shigella dysenteriae; conditions: Gram: neg
[37] = tested on: Shigella flexneri; conditions: Gram: neg
[38] = tested on: Shigella sonnei; conditions: Gram: neg
[39] = tested on: Vibrio cholerae; conditions: Gram: neg
[40] = tested on: Yersinia pestis; conditions: Yersinia pestis; Gram: neg
[41] = tested on: Corynebacterium jeikeium; conditions: Gram: pos
[42] = tested on: Corynebacterium urealyticum; conditions: Gram: pos
[43] = tested on: Methicillin Resistant Staph aureus (MRSA); conditions: Gram: pos
[44] = tested on: Staphylococcus aureus (MSSA); conditions: Gram: pos
[45] = tested on: Streptococcus pyogenes; conditions: Gram: pos
[46] = tested on: Bacteroides fragilis; conditions: Gram: anaer
[47] = tested on: Chlamydia pneumoniae; conditions: Gram: n/a
[48] = tested on: Haemophilus parainfluenzae; conditions: Gram: neg
[49] = tested on: Enterococcus faecium; conditions: Gram: pos
[50] = tested on: Staphylococcus epidermidis; conditions: Gram: pos
[51] = tested on: Clostridium difficile; conditions: Gram: anaer
[52] = tested on: Chlamydia psittaci; conditions: Chlamydia psittaci; Gram: n/a
[53] = tested on: Chlamydia trachomatis; conditions: Gram: n/a
[54] = tested on: Mycoplasma pneumoniae; conditions: Gram: n/a
[55] = tested on: Diphtheroids; conditions: Gram: pos
[56] = tested on: Enterococcus faecalis; conditions: Gram: pos
[57] = tested on: Peptostreptococcus; conditions: Gram: pos
[58] = tested on: Streptococcus agalactiae; conditions: Gram: pos
[59] = tested on: Streptococcus pneumoniae; conditions: Gram: pos
[60] = tested on: Viridans group streptococci; conditions: Gram: pos

Measured: Expected coverage

C/C(=C\C(=O)OCCCCCCCCC(=O)O)C[C@@H]1OC[C@H](C[C@@H]2O[C@H]2[C@@H](C)[C@H](C)O)[C@@H](O)[C@H]1O [Bactroban]
yes: [43] | [44] | [45]
not listed: [46] | [47] | [48] | [49] | [50] | [51] | [52] | [53] | [54] | [55] | [56] | [57] | [58] | [59] | [60]
no: all other assays above

O=C(O)c1cn(C2CC2)c2cc(N3CCNCC3)c(F)cc2c1=O [Ciprofloxacin, ciprofloxacin]
no: [46] | [41] | [49] | [43]
not listed: [1] | [2] | [3] | [4] | [6] | [7] | [12] | [13] | [16] | [18] | [42] | [44] | [45] | [51] | [52] | [53] | [54] | [55] | [56] | [57] | [58] | [59] | [60]
yes: all other assays above

colistimethate
yes: [11] | [12] | [13] | [14] | [18] | [19] | [20] | [30] | [31]
not listed: [1] | [2] | [3] | [4] | [5] | [8] | [9] | [10] | [15] | [16] | [17] | [23] | [32] | [33] | [35] | [36] | [37] | [38] | [40]
no: all other assays above
